Patent US20090088373A1, “USE OF COMPOSITIONS TO ENHANCE INNATE IMMUNE RESPONSE” (priority 2007, published 2009)

Legend:
[1] = tested on: Human Beta Defensin (HBD) 2; experiment: HBD2 expression in normal human keratinocytes (NHEK); format: cell-based; design: unit not given here; details: Example 2
Protocol: To assess the effect of pimecrolimus on the innate immune response of the epidermis, cultures of normal human keratinocytes (NHEK) are stimulated with combinations of a concentration of 10 nM pimecrolimus, 1 μg/ml TLR 2/CD14 ligand—peptidoglycan (PGN), 10 μg/ml lipoteichoic acid (LTA), 2 0.1 μg/ml TLR 2/6 ligand—Malp-, and/or 0.1 μg/ml TLR 4/CD14 ligand—lipopolysaccharide (LPS). Expression of cathelicidin mRNA (Table 3) and protein as well as Human Beta Defensin (HBD) 2 (Table 4) and HBD3 (Table 5) expression in normal human keratinocytes is measured.

TLR6 = TLR6 gene expression by qPCR in NHEK; format: cell-based, human; details: Example 3; 10 nM pimecrolimus, 1 nM 1.25D3
Protocol: (§1) To assess the effect of pimecrolimus on the innate immune response of the epidermis, cultures of normal human keratinocytes (NHEK) are stimulated with a combination of a concentration of 10 nM pimecrolimus and of 1 nM 1.25D3. Gene expression of TLR1, TLR2, TLR4, TLR6 and CD14 are evaluated by qPCR. For CD14 protein expression, a Western Blot is performed and bands are quantified by densitometry using lmagej. Vehicle treated keratinocytes serve as controls. Cathelicidin protein expression is evaluated by immunofluorescence staining.

CD14 = CD14 gene expression by qPCR in NHEK; format: cell-based, human; details: for CD14 mRNA expression (Mean): 10 nM pimecrolimus; for CD14 mRNA expression (Means of N = 3): Example 6, 10 nM Pimecrolimus, 1 nM 1,25D3
Protocol: as §1
To assess the effect of pimecrolimus on the innate immune response of the epidermis, cultures of normal human keratinocytes (NHEK) are stimulated with a concentration of 10 nM pimecrolimus,1 nM 1.25 D3, 0.1 μg/ml TLR2/6 ligand Malp-2 or their combination. Expression of cathelicidin, CD14 and TLR2 mRNA normal human keratinocytes is measured and evaluated accordingly to the procedures as detailed in Example 2 above.
To assess the effect of time dependent effects of pimecrolimus on the innate immune response of the epidermis, cultures of normal human keratinocytes (NHEK) are stimulated with 10 nM Pimecrolimus and low dose calciferol (1,25D3) 1 nM for different time points. mRNA expression of cathelicidin, CD14 and TLR2 is analyzed by qPCR.

## CC[C@@H]1/C=C(\C)C[C@H](C)C[C@H](OC)[C@H]2O[C@@](O)(C(=O)C(=O)N3CCCC[C@H]3C(=O)O[C@H](/C(C)=C/[C@@H]3CC[C@H](Cl)[C@H](OC)C3)[C@H](C)[C@@H](O)CC1=O)[C@H](C)C[C@@H]2OC [Pimecrolimus, pimecrolimus]
[1]; with 10 nM Pimecrolimus + 0.1 μg/ml LPS
  HBD2 expression (Mean): 1.34
[1]; with 10 nM Pimecrolimus + 0.1 μg/ml Malp-2
  HBD2 expression (Mean): 867.92
[1]; with 10 nM Pimecrolimus + 1 μg/ml PGN
  HBD2 expression (Mean): 0.51
[1]; with 10 nM Pimecrolimus + 10 μg/ml LTA
  HBD2 expression (Mean): 1.77
[1]; with 10 nM Pimecrolimus, no TLR ligand (control row)
  HBD2 expression (Mean): 6.53
TLR6
  TLR6 mRNA expression (Mean): 4.40
CD14; Example 3, 1 nM 1.25D3
  CD14 mRNA expression (Mean): 2.07
CD14; Example 4, 1 nM 1.25 D3, 0.1 μg/ml Malp-2 or combination
  CD14 mRNA expression (Mean): 2.07
CD14; 0 h
  CD14 mRNA expression (Means of N = 3): 1.54
CD14; 8 h
  CD14 mRNA expression (Means of N = 3): 1.46
CD14; 24 h
  CD14 mRNA expression (Means of N = 3): 2.10
CD14; 48 h
  CD14 mRNA expression (Means of N = 3): 1.04
CD14; after 8 hours of treatment
  Effect on 1,25D3-induced CD14 mRNA expression (in words): suppressed
CD14; after 24 hours
  Effect on 1,25D3-induced CD14 mRNA expression (in words): enhanced
CD14; in the presence of low dose 1,25D3 and Malp-2
  CD14 expression (in words): increasing
